Measurements reported in US6441021B1, “Sulfonated amino acid derivatives and metalloproteinase inhibitors containing the same” (Shionogi & Co., Ltd., priority 1996, dated 2002).
Where two headings read alike, the source gives them in different places.

Key:
[1] = molecular target: T1, MMP-9 (92 kDa, gelatinase B; type IV collagenase) (Homo sapiens, UniProt P14780); assay: Assay of type IV collagenase inhibitors: activated MMP-9 with type IV collagenase activity kit substrate, fluorescent intensity; type: biochemical
T1 construct: endogenous in cells; enzyme purified from the conditioned medium
T1 sequence (P14780 107-707 limits assumed): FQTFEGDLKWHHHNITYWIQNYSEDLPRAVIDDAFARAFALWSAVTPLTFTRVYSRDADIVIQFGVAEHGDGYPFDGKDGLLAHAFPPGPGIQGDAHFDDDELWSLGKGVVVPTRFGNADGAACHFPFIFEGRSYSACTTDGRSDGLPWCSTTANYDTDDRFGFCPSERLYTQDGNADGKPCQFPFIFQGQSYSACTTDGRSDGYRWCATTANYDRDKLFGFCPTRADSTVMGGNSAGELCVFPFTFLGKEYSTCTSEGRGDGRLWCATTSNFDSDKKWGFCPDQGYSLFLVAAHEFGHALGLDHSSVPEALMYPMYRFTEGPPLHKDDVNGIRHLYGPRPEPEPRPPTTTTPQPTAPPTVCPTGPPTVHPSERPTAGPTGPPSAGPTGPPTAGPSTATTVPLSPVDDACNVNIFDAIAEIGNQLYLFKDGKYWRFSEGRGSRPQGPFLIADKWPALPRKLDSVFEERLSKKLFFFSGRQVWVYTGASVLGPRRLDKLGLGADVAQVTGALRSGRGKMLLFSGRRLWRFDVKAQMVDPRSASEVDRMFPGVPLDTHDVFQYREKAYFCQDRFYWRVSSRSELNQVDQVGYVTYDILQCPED
Protocol: (1) Isolation and Purification of MMP-9 (92 kDa, Gelatinase B)
Type IV collagenase (MMP-9) was purified according to the methods descrived in the following literature.
Subsequently, activated MMP-9 was obtained by treating the pro-MMP-9 with trypsin.
(2) Assay Methods of Type IV Collagenase Inhibitors
Collagenase assay was performed using the activated MMP-9 described above and the substrate supplied in the type IV collagenase activity kit (YAGAI, inc.), according to the manufacturer's protocol. The following 4 assays are performed per compound (inhibitor).
(A) substrate (type IV collagenase), enzyme (MMP-9), inhibitor
(B) substrate (type IV collagenase), inhibitor
(C) substrate (type IV collagenase), enzyme (MMP-9)
(D) substrate (type IV collagenase)
According to the manufacturer's protocol, fluorescent intensity was measured and percent inhibition was determined by the following equation.
Inhibition (%)={1−(A−B)/(C−D)}×100

[2] = inhibition of type IV collagenase (MMP-9), concentration at which percent inhibition reaches 50%

Work on `CC(C)(C)c1ccc(-n2nnc(-c3ccc(S(=O)(=O)N[C@H](Cc4ccccc4)C(=O)O)cc3)n2)cc1` [Example 236] yielded an IC50 [1] of 304 nM and a melting point of 224 to 226 °C.
With `O=C(Nc1ccc(S(=O)(=O)N[C@H](Cc2ccccc2)C(=O)O)cc1)c1ccc(Br)cc1` [Example 189] the IC50 [1] was 37.5 nM and the melting point was 242 to 243 °C.
`CC(C)C[C@@H](NS(=O)(=O)c1ccc(-c2nnn(-c3ccccc3)n2)cc1)C(=O)O` [Example 214] gave an IC50 [1] of 832 nM and a melting point of 202 to 204 °C.
Work on `Cn1cc(CC(NS(=O)(=O)c2ccc(-c3nnn(-c4ccccc4)n3)cc2)C(=O)O)c2ccccc21` (centres unmarked) [Example 212] yielded an IC50 [1] of 393 nM and a melting point of 199 to 202 °C.
`O=C(Nc1ccc(S(=O)(=O)N[C@H](Cc2c[nH]c3ccccc23)C(=O)O)cc1)c1ccccc1` [Example 177] gave an IC50 [1, 2] of 684 nM and a melting point of 215 to 217 °C.
With `Nc1ccc(C(=O)Nc2ccc(S(=O)(=O)N[C@H](Cc3c[nH]c4ccccc34)C(=O)O)cc2)cc1` [Example 179] the IC50 [1] was 2360 nM and the melting point was 216 to 218 °C.
Compound `O=C(O)[C@@H](Cc1ccccc1)NS(=O)(=O)c1ccc(-c2nnn(-c3ccc(O)cc3)n2)cc1` [Example 239] has an IC50 [1] of 243 nM and a melting point of 226 to 228 °C.
Work on `COc1ccc(C(=O)Nc2ccc(S(=O)(=O)N[C@H](Cc3ccccc3)C(=O)O)cc2)cc1` [Example 186] yielded an IC50 [1] of 98.2 nM and a melting point of 237 to 239 °C.
Work on `CCC(C)[C@@H](NS(=O)(=O)c1ccc(-c2nnn(-c3ccccc3)n2)cc1)C(=O)O` (some centres unmarked) [Example 221] yielded an IC50 [1] of 316 nM and a melting point of 205 to 207 °C.
With `O=C(Nc1ccc(S(=O)(=O)N[C@H](Cc2ccccc2)C(=O)O)cc1)c1ccc(F)cc1` [Example 192] the IC50 [1] was 324 nM and the melting point was 218 to 220 °C.
With `CSc1ccc(-c2ccc(S(=O)(=O)N(C)[C@@H](C(=O)O)C(C)C)s2)cc1` [Example 259] the IC50 [1] was 130 nM and the melting point was 141 to 144 °C.
With `O=C(O)C(Cc1c[nH]c2ccc(F)cc12)NS(=O)(=O)c1ccc(-c2nnn(-c3ccccc3)n2)cc1` (centres unmarked) [Example 213] the IC50 [1] was 128 nM and the melting point was 224 to 225 °C.
With `CC(C)[C@@H](NS(=O)(=O)c1ccc(-c2nnn(-c3ccc(O)cc3)n2)cc1)C(=O)O` [Example 223] the IC50 [1] was 349 nM and the melting point was 190 °C (dec.).
Compound `CSc1ccc(C(=O)Nc2ccc(S(=O)(=O)N[C@H](Cc3ccccc3)C(=O)O)cc2)cc1` [Example 191] has an IC50 [1] of 9.5 nM and a melting point of 232 to 235 °C.
Compound `CC(C)C[C@H](C(=O)O)N(C)S(=O)(=O)c1ccc(-c2nnn(-c3ccccc3)n2)cc1` [Example 257] has an IC50 [1] of 776 nM and a melting point of 132 to 132.5 °C.
In the case of `CC(C)[C@@H](NS(=O)(=O)c1ccc(-c2nnn(-c3ccccc3)n2)cc1)C(=O)O` [Example 215], the IC50 [1, 2] is reported as 110 nM and the melting point is reported as 221 to 222 °C.
`O=C(O)[C@@H](Cc1ccccc1)NS(=O)(=O)c1ccc(-c2nnn(-c3ccc(Oc4ccccc4)cc3)n2)cc1` [Example 238] gave an IC50 [1] of 2850 nM and a melting point of 182 to 184 °C.
Compound `COc1ccc(-n2nnc(-c3ccc(S(=O)(=O)N[C@@H](C(=O)O)C(C)(C)C)cc3)n2)cc1` [Example 226] has an IC50 [1] of 166 nM and a melting point of 204 to 207 °C.
Work on `CC(C)[C@@H](NS(=O)(=O)c1ccc(-c2nnn(-c3ccc(Cl)cc3)n2)cc1)C(=O)O` [Example 244] yielded an IC50 [1] of 16.5 nM and a melting point of 223 to 225 °C.
Compound `CC(C)[C@H](C(=O)NO)N(Cc1ccccc1)S(=O)(=O)c1ccc(Oc2ccccc2)cc1` [Example 254] has an IC50 [1] of 0.63 nM and a melting point of 148 to 150 °C.
`CC(C)[C@H](C(=O)NO)N(C)S(=O)(=O)c1ccc(Oc2ccccc2)cc1` [Example 253] gave an IC50 [1] of 0.039 nM and a melting point of 110 to 111 °C.
`CC(C)[C@@H](NS(=O)(=O)c1ccc(NC(=O)c2ccc(Br)cc2)cc1)C(=O)O` [Example 202] showed an IC50 [1] of 11.4 nM and a melting point of 229 to 230 °C.
`CC(C)[C@H](C(=O)O)N(C)S(=O)(=O)c1ccc(-c2nnn(-c3ccccc3)n2)cc1` [Example 256] showed an IC50 [1] of 601 nM and a melting point of 206 to 207 °C.
In the case of `O=C(O)[C@@H](Cc1ccccc1)NS(=O)(=O)c1ccc(-c2nnn(-c3ccc(C(F)(F)F)cc3)n2)cc1` [Example 229], the IC50 [1] is reported as 215 nM and the melting point is reported as 197 to 198 °C.
`COc1ccc(C(=O)Nc2ccc(S(=O)(=O)N[C@@H](C(=O)O)C(C)(C)C)cc2)cc1` (hydrate or solvate) [Example 203] gave a melting point of 214 to 216 °C.
In the case of `CC(C)[C@@H](NS(=O)(=O)c1ccc(NC(=O)c2ccc(F)cc2)cc1)C(=O)O` [Example 198], the IC50 [1] is reported as 493 nM and the melting point is reported as 235 to 236 °C.
Work on `O=C(Nc1ccc(S(=O)(=O)N[C@H](Cc2ccccc2)C(=O)O)cc1)c1ccc(Cl)nc1` [Example 193] yielded an IC50 [1] of 722 nM and a melting point of 201 to 203 °C.
In the case of `Cc1cnc(C(=O)Nc2ccc(S(=O)(=O)N[C@H](Cc3ccccc3)C(=O)O)cc2)cn1` [Example 204], the IC50 [1] is reported as 3950 nM and the melting point is reported as 236 to 237 °C.
For `O=C(Nc1ccc(S(=O)(=O)N[C@H](Cc2ccccc2)C(=O)O)cc1)c1ccc([N+](=O)[O-])cc1` [Example 187], the IC50 [1] was 177 nM and the melting point was 235 to 239 °C.
`CCC(C)[C@@H](NS(=O)(=O)c1ccc(-c2nnn(-c3ccc(OC)cc3)n2)cc1)C(=O)O` (some centres unmarked) (hydrate or solvate) [Example 222] gave a melting point of 204 to 207 °C.
`COc1ccc(-n2nnc(-c3ccc(S(=O)(=O)N[C@H](Cc4ccccc4)C(=O)O)cc3)n2)cc1` (hydrate or solvate) [Example 234] gave a melting point of 214 to 216 °C.
`CC(C)[C@@H](NS(=O)(=O)c1ccc(-c2nnn(-c3ccc(Br)cc3)n2)cc1)C(=O)O` (hydrate or solvate) [Example 225] gave a melting point of 227 to 228 °C.
`CC(C)[C@@H](NS(=O)(=O)c1ccc(NC(=O)c2ccc(-c3ccccc3)cc2)cc1)C(=O)O` (hydrate or solvate) [Example 195] gave a melting point of 254 to 256 °C.
With `Cc1ccc(-n2nnc(-c3ccc(S(=O)(=O)N[C@H](Cc4c[nH]c5ccccc45)C(=O)O)cc3)n2)cc1` (hydrate or solvate) [Example 241] the melting point was 199 to 201 °C.
Work on `O=C(O)[C@@H](Cc1c[nH]c2ccccc12)NS(=O)(=O)c1ccc(-c2nnn(-c3ccc(Br)cc3)n2)cc1` (hydrate or solvate) [Example 240] yielded a melting point of 205 to 207 °C.
`O=Cn1cc(C[C@@H](NS(=O)(=O)c2ccc(-c3nnn(-c4ccccc4)n3)cc2)C(=O)O)c2ccccc21` (hydrate or solvate) [Example 219] gave a melting point of 111 to 114 °C.
With `CSc1ccc(C(=O)Nc2ccc(S(=O)(=O)N[C@@H](C(=O)O)C(C)C)cc2)cc1` [Example 197] the IC50 [1, 2] was 16.1 nM and the melting point was 231 to 234 °C.
Work on `O=C(Nc1ccc(S(=O)(=O)N[C@H](Cc2ccccc2)C(=O)O)cc1)c1ccccc1` [Example 188] yielded an IC50 [1, 2] of 843 nM and a melting point of 114 to 115 °C.
`CSc1ccc(C(=O)Nc2ccc(S(=O)(=O)N[C@H](Cc3c[nH]c4ccccc34)C(=O)O)cc2)cc1` (hydrate or solvate) [Example 184] gave a melting point of 244 to 249 °C.
In the case of `O=C(O)[C@@H](Cc1c[nH]c2ccccc12)NS(=O)(=O)c1ccc(-c2nnn(-c3ccc(F)cc3)n2)cc1` [Example 227], the IC50 [1] is reported as 19.8 nM and the melting point is reported as 203 to 205 °C.
In the case of `Cc1cccc2[nH]cc(CC(NS(=O)(=O)c3ccc(-c4nnn(-c5ccccc5)n4)cc3)C(=O)O)c12` (centres unmarked) [Example 216], the IC50 [1] is reported as 107 nM and the melting point is reported as 145 to 148 °C.
`Cc1ccc(C(=O)Nc2ccc(S(=O)(=O)N[C@H](Cc3ccccc3)C(=O)O)cc2)cc1` [Example 190] showed an IC50 [1, 2] of 59.7 nM and a melting point of 242 to 244 °C.
With `N#Cc1ccc(-n2nnc(-c3ccc(S(=O)(=O)N[C@H](Cc4ccccc4)C(=O)O)cc3)n2)cc1` (hydrate or solvate) [Example 235] the melting point was 190 to 192 °C.
In the case of `Cc1ccc(C(=O)Nc2ccc(S(=O)(=O)N[C@@H](C(=O)O)C(C)C)cc2)cc1` (hydrate or solvate) [Example 196], the melting point is reported as 227 to 229 °C.
